# Reference: patent US20110124692A1, “CRYSTALLINE FORMS OF THIAZOLIDINEDIONE COMPOUND AND ITS MANUFACTURING METHOD” (DAIICHI SANKYO COMPANY, LIMITED, priority 2008, published 2011)
# Counter-ions that a name gives are not always drawn. Like-named read-outs stand apart in the source and are kept apart here.
# Key:
# [1] = Solubility in dilute hydrochloric acid (Test Example 3); assay type: physicochemical; conditions: for The concentration (mg/g) of 5-(4-{[6-(4-amino-3,5-dimethylphenoxy)-1-methyl-1-H-benzimidazol-2-yl]methoxy}benzyl)-1,3-thiazolidine-2,4-dione in dilute hydrochloric acid: dilute hydrochloric acid 9.6 mg/g (pH about 0.7), 25° C., 500 mg in 5 mL, sampled after 6 minutes; for Concentration in dilute hydrochloric acid compared with the other crystalline forms: comparison of Table 7
# Method: The concentration was measured under the test conditions below.
# The concentration is calculated from the following formula.
# [2] = in vivo; cited from earlier work
# [3] = molecular target: T1, peroxisome proliferator-activated receptor (PPAR) γ (Homo sapiens, UniProt P37231); conditions: as disclosed in Patent Documents 1-5; cited from earlier work
# T1 sequence (P37231 1-505): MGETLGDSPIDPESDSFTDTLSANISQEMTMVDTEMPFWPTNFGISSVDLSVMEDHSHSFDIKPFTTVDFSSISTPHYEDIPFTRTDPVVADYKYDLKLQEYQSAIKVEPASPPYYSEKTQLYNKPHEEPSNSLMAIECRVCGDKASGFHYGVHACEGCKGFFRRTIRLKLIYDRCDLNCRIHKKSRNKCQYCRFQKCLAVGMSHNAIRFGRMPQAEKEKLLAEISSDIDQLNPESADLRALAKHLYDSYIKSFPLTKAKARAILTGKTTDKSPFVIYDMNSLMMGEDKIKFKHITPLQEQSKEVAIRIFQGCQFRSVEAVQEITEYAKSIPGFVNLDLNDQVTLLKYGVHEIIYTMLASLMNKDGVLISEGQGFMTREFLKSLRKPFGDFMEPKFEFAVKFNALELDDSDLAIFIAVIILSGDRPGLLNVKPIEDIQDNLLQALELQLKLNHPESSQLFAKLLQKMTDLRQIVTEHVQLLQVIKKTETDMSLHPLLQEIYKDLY
# cancer cells [4] = conditions: in combination with a VEGFR inhibitor or a Raf kinase inhibitor; cited from earlier work
# [5] = system: human stomach cancer cells, human breast cancer cells, small cell lung cancer, pancreas cancer cells, prostate cancer cells, kidney cancer cells …; conditions: medulloblastoma, sarcoma cells, multiple myeloma; cited from earlier work
# human leukemia cells = conditions: cited from earlier work
# [6] = system: human non-small-cell lung cancer; conditions: cited from earlier work
# human kidney cancer = conditions: cited from earlier work
# [7] = system: human colon cancer cell lines; conditions: against human colon cancer cell lines; cited from earlier work
# cancer cells [8] = conditions: in combination with an epidermal growth factor receptor (EGFR) inhibitor; cited from earlier work
smiles,measurement,setting,value
"Cc1cc(Oc2ccc3nc(COc4ccc(CC5SC(=O)NC5=O)cc4)n(C)c3c2)cc(C)c1N (stereo not shown) [5-(4-{[6-(4-amino-3,5-dimethylphenoxy)-1-methyl-1-H-benzimidazol-2-yl]methoxy}benzyl)-1,3-thiazolidine-2,4-dione monohydrate]","The concentration (mg/g) of 5-(4-{[6-(4-amino-3,5-dimethylphenoxy)-1-methyl-1-H-benzimidazol-2-yl]methoxy}benzyl)-1,3-thiazolidine-2,4-dione in dilute hydrochloric acid",[1]; monohydrate,0.579 mg/g
same,Concentration in dilute hydrochloric acid compared with the other crystalline forms,"[1]; listed as free-form crystalline form, monohydrate",higher concentration than all the dihydrochloride monohydrate crystalline forms
"Cc1cc(Oc2ccc3nc(COc4ccc(CC5SC(=O)NC5=O)cc4)n(C)c3c2)cc(C)c1N (stereo not shown) [Crystalline form manufactured according to Example (2-1)] [5-(4-{[6-(4-amino-3,5-dimethylphenoxy)-1-methyl-1-H-benzimidazol-2-yl]methoxy}benzyl)-1,3-thiazolidine-2,4-dione dihydrochloride monohydrate]","The concentration (mg/g) of 5-(4-{[6-(4-amino-3,5-dimethylphenoxy)-1-methyl-1-H-benzimidazol-2-yl]methoxy}benzyl)-1,3-thiazolidine-2,4-dione in dilute hydrochloric acid",[1]; dihydrochloride monohydrate,0.276 mg/g
"Cc1cc(Oc2ccc3nc(COc4ccc(CC5SC(=O)NC5=O)cc4)n(C)c3c2)cc(C)c1N (stereo not shown) [Crystalline form A manufactured according to Example 4] [5-(4-{[6-(4-amino-3,5-dimethylphenoxy)-1-methyl-1-H-benzimidazol-2-yl]methoxy}benzyl)-1,3-thiazolidine-2,4-dione dihydrochloride monohydrate]","The concentration (mg/g) of 5-(4-{[6-(4-amino-3,5-dimethylphenoxy)-1-methyl-1-H-benzimidazol-2-yl]methoxy}benzyl)-1,3-thiazolidine-2,4-dione in dilute hydrochloric acid",[1]; dihydrochloride monohydrate,0.325 mg/g
same,Concentration in dilute hydrochloric acid compared with the other crystalline forms,[1]; dihydrochloride monohydrate,highest concentration among the dihydrochloride monohydrate crystalline forms
"Cc1cc(Oc2ccc3nc(COc4ccc(CC5SC(=O)NC5=O)cc4)n(C)c3c2)cc(C)c1N (stereo not shown) [Compound (I), 5-(4-{[6-(4-amino-3,5-dimethylphenoxy)-1-methyl-1-H-benzimidazol-2-yl]methoxy}benzyl)-1,3-thiazolidine-2,4-dione]",Activity to ameliorate insulin resistance and to reduce blood sugar,[2],significant activity to ameliorate insulin resistance and to reduce blood sugar
same,Ability to activate PPAR γ,[3],significant ability to activate
"Cc1cc(Oc2ccc3nc(COc4ccc(CC5SC(=O)NC5=O)cc4)n(C)c3c2)cc(C)c1N (stereo not shown) [dihydrochloride of Compound (I), 5-(4-{[6-(4-amino-3,5-dimethylphenoxy)-1-methyl-1-H-benzimidazol-2-yl]methoxy}benzyl)-1,3-thiazolidine-2,4-dione dihydrochloride]",Activity to inhibit the growth of cancer cells in combination,cancer cells [4],synergistic activity to inhibit the growth of cancer cells
same,Activity to inhibit the growth of cancer cells,[5],significant activity to inhibit the growth
same,Growth inhibition of human leukemia cells,human leukemia cells,significantly inhibits the growth-inhibiting activity
same,Antitumor activity,[6]; alone,has antitumor activity
same,Antitumor activity in combination,[6]; in combination with an EGFR inhibitor,enhanced antitumor activity
same,Antitumor activity,human kidney cancer; alone,has antitumor activity
same,Antitumor activity in combination,human kidney cancer; in combination with a VEGFR inhibitor or a Raf kinase inhibitor,enhanced antitumor activity
same,Antitumor activity in vivo,[7],significant antitumor activity in vivo
same,Activity to inhibit the growth of cancer cells in combination,cancer cells [8],synergistic activity to inhibit the growth of cancer cells
